Experimental data reported in US11731986B2 (Sanford Burnham Prebys Medical Discovery Institute, priority 2017, dated 2023).

Biological target: T1, human LMPTP-A (Homo sapiens, UniProt P24666)
T1 sequence (P24666 1-158): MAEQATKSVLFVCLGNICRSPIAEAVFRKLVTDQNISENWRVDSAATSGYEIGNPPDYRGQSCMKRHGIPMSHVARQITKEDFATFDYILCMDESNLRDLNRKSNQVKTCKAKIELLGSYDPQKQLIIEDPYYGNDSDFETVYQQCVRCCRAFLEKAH
Experiment: Enzyme Assay of Inhibition of LMPTP-A (phosphatase assay, OMFP or pNPP substrate)
Format: biochemical
Settings: Bis-Tris pH 6.0, 37° C.
Method in brief: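 Buffer 50 mM Bis-Tris pH 6.0, 1 mM DTT, 0.01% Triton X-100, 37 °C; OMFP read continuously (485/525 nm) or pNPP stopped with NaOH, 405 nm. IC50 from concentration vs % activity. Selectivity: 40 μM compound with 0.4 mM OMFP or 5 mM pNPP; reversibility: 50 nM enzyme, 10 μM compound, 5 min, 100× dilution.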

IC50	Molecule
1000 to 20000 nM	CN1CCC(CNC(=O)C#Cc2ccc(-c3cc(NCCCN4CCCCC4)c4cnccc4n3)cc2)CC1 [N-((1-methylpiperidin-4-yl)methyl)-3-(4-(4-((3-(piperidin-1-yl)propyl)amino)-1,6-naphthyridin-2-yl)phenyl)propiolamide]
≤ 1000 nM	O=C(c1cc2ccc(-c3cc(NCCCN4CCCCC4)c4cnccc4n3)cc2s1)N1CCNCC1 [Piperazin-1-yl(6-(4-(3-(piperidin-1-yl)propylamino)-1,6-naphthyridin-2-yl)benzo[b]thiophen-2-yl)methanone]
1000 to 20000 nM	O=C(c1nc2ccc(-c3cc(NCCCN4CCCCC4)c4cnccc4n3)cc2s1)N1CCNCC1 [Piperazin-1-yl(6-(4-(3-(piperidin-1-yl)propylamino)-1,6-naphthyridin-2-yl)benzo[d]thiazol-2-yl)methanone]
≤ 1000 nM	CCOC(=O)c1cc2cc(-c3cc(NCCCN4CCCCC4)c4cnccc4n3)ccc2n1C [ethyl 1-methyl-5-(4-((3-(piperidin-1-yl)propyl)amino)-1,6-naphthyridin-2-yl)-1H-indole-2-carboxylate]
1000 to 20000 nM	COC(=O)c1ccc(-c2cc(NCCCN3CCCCC3)c3cnccc3n2)c(C(N)=O)c1 [methyl 3-carbamoyl-4-(4-((3-(piperidin-1-yl)propyl)amino)-1,6-naphthyridin-2-yl)benzoate]

Molecule	IC50
methyl-N-(1-methylpiperidin-4-yl)-5-(4-((3-(piperidin-1-yl)propyl)amino)-1,6-naphthyridin-2-yl)-1H-pyrrolo[3,2-b]pyridine-2-carboxamide	1000 to 20000 nM
